Literature values in patent publication US20170369677A1, “MATERIALS FREE OF ENDOCRINE DISRUPTIVE ACTIVITY” (CertiChem, Inc., priority 2006, published 2017).
Where two headings read alike, the source gives them in different places.

Legend:
ER = details: statement in words
[1] = statement in words
[2] = recommended daily dietary allowance for these antioxidants
[3] = test system: snails, fish, frogs, and rodents
[4] = for Carcinogenic or Other Toxic Effects: common pigments used in plastic formulations, Table P-3

Compound | estrogenic or androgenic activity [1] | ADI [2] | also measured
CC(C)(C)c1cc(Cc2cc(C(C)(C)C)c(O)c(C(C)(C)C)c2)cc(C(C)(C)C)c1O [4,4′-methylenebis (2,6-di-t-butylphenol)] | – | – | ER binding activity observed (ER): lack of binding activity
C[C@]12CC[C@@H]3c4ccc(O)cc4CC[C@H]3[C@@H]1CC[C@@H]2O [17β-estradiol (E2), 17β-estradiol, reference compound] | strong estrogen | – | –
COc1ccc(O)c(C(C)(C)C)c1 [BHA, Butylated hydroxyanisole] | – | 0 to 0.5 mg/kg | –
Cc1cc(C(C)(C)C)c(O)c(C(C)(C)C)c1 [BHT, Butylated hydroxytoulene] | has estrogenic activity | 0 to 0.125 mg/kg | –
CC(C)(c1ccc(O)cc1)c1ccc(O)cc1 [Bisphenol A] | deleterious estrogenic activity | – | levels in human umbilical cords: 0.2 to 2 µg/kg; dose at which deleterious developmental changes have been reported [3]: 0.5 to 2 µg/kg/day; dose at which deleterious developmental changes have been reported ([3]; listed as bisphenol A): 0.5 to 2 µg/kg/day
CC(C)CCC[C@@H](C)[C@H]1CC[C@H]2[C@@H]3CC=C4C[C@@H](O)CC[C@]4(C)[C@H]3CC[C@]12C [Cholesterol] | little or no known estrogenic or androgenic activity | – | –
C[C@]12CCC(=O)C[C@@H]1CC[C@@H]1[C@@H]2CC[C@]2(C)[C@@H](O)CC[C@@H]12 [DHT, 5a-dihydrotestosterone, reference compound] | strong androgen | – | –
C=C [Ethylene] | no known estrogenic activity or other deleterious effects | – | –
[C-]#N.[C-]#N.[C-]#N.[C-]#N.[C-]#N.[C-]#N.[Fe+2].[Fe+3].[NH4+] [Ferric amonimum, ferric amonimum ferrocyanide] | – | – | Carcinogenic or Other Toxic Effects [4]: Yes
[O]=[Mo](=[O])([O-])[O-].[Pb+2] [Lead molybdate] | – | – | Carcinogenic or Other Toxic Effects [4]: Yes
CCCOC(=O)c1cc(O)c(O)c(O)c1 [Propyl gallate] | – | 0 to 2.5 mg/kg | –
CC(C)(C)c1cc(O)ccc1O [TBHQ, Tert-Butylhydroquinone] | – | 0 to 0.2 mg/kg | –
O=C(O)c1ccc(C(=O)O)cc1 [Terephthalic, terephthalic acid] | deleterious estrogenic activity | – | –
C=CCl [Vinylchloride] | – | – | toxic effects stated in text ([4]; statement in words): other toxic effects
CC(=O)[C@H]1CC[C@H]2[C@@H]3CCC4=CC(=O)CC[C@]4(C)[C@H]3CC[C@]12C [progesterone] | androgenic, but no known estrogenic, activity | – | –
Tocopherols | – | 0.15 to 2 mg/kg | –
